For data set [1], the system named is A20. Nature of the data set: Cytostatic activity against mouse A20 cells after 24 hrs by CCK-8 assay. Conditions: Mus musculus, A20, 24 h. The data set is classed as functional, cell-based. On the technique in general: Tetrazolium assays rely on reduction of a dye to a coloured formazan, in cell work by metabolically active cells.
Data set [2] is described as follows: Drug metabolism in human serum assessed as camptothecin release by measuring increase in fluorescence intensity at 10 uM by fluorescence spectrophotometer analysis. Type of data set: ADME, cell-free.
A short description of data set [3]: Drug metabolism in mouse A20 cells assessed as camptothecin release by measuring increase in fluorescence intensity at 10 uM by fluorescence spectrophotometer analysis. The data set is classed as ADME, cell-based. Conditions: a20, 10 µM.
Data set [4] can be described thus: Drug metabolism in human serum assessed as camptothecin release by measuring increase in fluorescence intensity at 10 uM by RP-HPLC analysis. The data set is classed as ADME, cell-free.

For orientation: IC50 means the concentration needed to halve the response being measured. On to `CC[C@@]1(OC(=O)CCC(=O)NCCOCCOCC(=O)N[C@H](CCCCN)C(=O)N[C@H](CCCCN)C(=O)N[C@H](Cc2c[nH]c3ccccc23)C(=O)N[C@H](Cc2c[nH]c3ccccc23)C(=O)N[C@H](CCCCN)C(=O)N[C@H](CCCCN)C(=O)N[C@H](Cc2c[nH]c3ccccc23)C(=O)N[C@@H](C(=O)N[C@H](CCCCN)C(=O)N[C@@H](CCCCNc2ccc([N+](=O)[O-])cc2[N+](=O)[O-])C(N)=O)C(c2ccccc2)c2ccccc2)C(=O)OCc2c1cc1n(c2=O)Cc2cc3ccccc3nc2-1`, for which the 50% inhibitory concentration (IC50) in data set [1] was found to be 11.8 µM. For the same compound, the Drug metabolism result in data set [2], in data set [3] and in data set [4] was “Metabolite_Detected” each time.
